In patent US8802597B2, “Herbicidal pyrimidines” (E I du Pont de Nemours and Company, priority 2003, dated 2014):
Read-outs that look alike come from different tables or passages of the source.

Assays:
Assay in all cases: Test C pre/postemergence
Format in all cases: in vivo
[1] = test system: Surinam grass (Brachiaria decumbens); details: Urochloa decumbens; for pest or weed control at 125 g/ha: 125 g ai/ha; for pest or weed control at 62 g/ha: 62 g ai/ha
In short: (§1)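 Visual injury ratings, 0 (no effect) to 100 (complete control), made 12 to 14 days after treatment by comparison with untreated controls. Greenhouse plants received test chemical in a surfactant-containing non-phytotoxic solvent, either preemergence on planted seeds or postemergence at the 1- to 4-leaf stage.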

[2] = test system: cocklebur (Xanthium strumarium); details: Xanthium strumarium; for pest or weed control at 31 g/ha: 31 g ai/ha; for pest or weed control at 62 g/ha: 62 g ai/ha; for pest or weed control at 125 g/ha: 125 g ai/ha
In short: as §1

[3] = test system: common (oilseed) sunflower (Helianthus annuus); details: Helianthus annuus, pre-emergence, Preemergence, read-out: Plant response rating, Sunflower
In short: as §1

[4] = test system: common ragweed (Ambrosia elatior); details: Ambrosia artemisiifolia; for pest or weed control at 31 g/ha: 31 g ai/ha; for pest or weed control at 62 g/ha: 62 g ai/ha; for pest or weed control at 125 g/ha: 125 g ai/ha; for pest or weed control at 250 g/ha: 250 g ai/ha
In short: as §1

corn (Zea mays) = details: Zea mays; for Corn plant response rating (crop injury, 0 = no effect, 100 = complete kill) at 31 g/ha: 31 g ai/ha; for Corn plant response rating (crop injury, 0 = no effect, 100 = complete kill) at 62 g/ha: 62 g ai/ha; for Corn plant response rating (crop injury, 0 = no effect, 100 = complete kill) at 125 g/ha: 125 g ai/ha
In short: as §1

[5] = test system: crabgrass (Digitaria sanguinalis); details: Digitaria sanguinalis; for pest or weed control at 31 g/ha: 31 g ai/ha; for pest or weed control at 62 g/ha: 62 g ai/ha; for pest or weed control at 125 g/ha: 125 g ai/ha; for pest or weed control at 250 g/ha: 250 g ai/ha
In short: as §1

[6] = test system: goosegrass (Eleusine indica); details: Eleusine indica, post-emergence, Postemergence
In short: as §1

[7] = post-emergence, Postemergence, scale 0 to 100 (0 no effect, 100 complete control), read-out: Surinam Grass plant response rating
[8] = post-emergence, Postemergence, scale 0 to 100 (0 no effect, 100 complete control), read-out: Cocklebur plant response rating
[9] = pre-emergence, Preemergence, scale 0 to 100, 0 no effect, 100 complete control, read-out: Plant response rating, Cocklebur
[10] = post-emergence, Postemergence, scale 0 to 100 (0 no effect, 100 complete control), read-out: Ragweed plant response rating
[11] = pre-emergence, Preemergence, scale 0 to 100, 0 no effect, 100 complete control, read-out: Plant response rating, Ragweed
[12] = pre-emergence, Preemergence, scale 0 to 100, read-out: Plant response rating, Ragweed
[13] = post-emergence, Postemergence, scale 0 to 100 (0 no effect, 100 complete control), read-out: Corn plant response rating
[14] = pre-emergence, Preemergence, scale 0 to 100, 0 no effect, 100 complete control, read-out: Plant response rating, Corn
[15] = post-emergence, Postemergence, scale 0 to 100 (0 no effect, 100 complete control), read-out: Crabgrass plant response rating
[16] = pre-emergence, Preemergence, scale 0 to 100, 0 no effect, 100 complete control, read-out: Plant response rating, Crabgrass
[17] = pre-emergence, Preemergence, scale 0 to 100, read-out: Plant response rating, Crabgrass

Compound: CCOC(=O)c1nc(-c2ccc(Cl)cc2)nc(N)c1Cl [Compound 64, ethyl 6-amino-5-chloro-2-(4-chlorophenyl)-4-pyrimidinecarboxylate]
- pest or weed control at 125 g/ha [1, 7]: 60%
- pest or weed control at 31 g/ha ([1]; post-emergence, Postemergence, 31 g ai/ha, read-out: Plant response rating (scale of 0 to 100), Surinam Grass): 20%
- pest or weed control at 62 g/ha [1, 7]: 60%
- pest or weed control at 62 g/ha ([1]; pre-emergence, Preemergence, scale 0 to 100, 0 no effect, 100 complete control, read-out: Plant response rating, Surinam Grass): 0%
- pest or weed control at 125 g/ha ([1]; pre-emergence, Preemergence, scale 0 to 100, read-out: Plant response rating, Surinam Grass): 50%
- pest or weed control at 250 g/ha ([1]; pre-emergence, Preemergence, 250 g ai/ha, scale 0 to 100, read-out: Plant response rating, Surinam Grass): 90%
- pest or weed control at 31 g/ha ([2]; post-emergence, Postemergence, read-out: Plant response rating (scale of 0 to 100), Cocklebur): 90%
- pest or weed control at 62 g/ha [2, 8]: 90%
- pest or weed control at 125 g/ha [2, 8]: 100%
- pest or weed control at 31 g/ha [2, 9]: 0%
- pest or weed control at 62 g/ha [2, 9]: 0%
- pest or weed control at 125 g/ha ([2]; pre-emergence, Preemergence, scale 0 to 100, read-out: Plant response rating, Cocklebur): 5%
- pest or weed control at 250 g/ha ([2]; pre-emergence, Preemergence, 250 g ai/ha, scale 0 to 100, read-out: Plant response rating, Cocklebur): 30%
- pest or weed control at 31 g/ha ([3]; 31 g ai/ha, scale 0 to 100, 0 no effect, 100 complete control): 0%
- pest or weed control at 62 g/ha ([3]; 62 g ai/ha, scale 0 to 100, 0 no effect, 100 complete control): 0%
- pest or weed control at 125 g/ha ([3]; 125 g ai/ha, scale 0 to 100): 30%
- pest or weed control at 250 g/ha ([3]; 250 g ai/ha, scale 0 to 100): 85%
- pest or weed control at 31 g/ha ([4]; post-emergence, Postemergence, read-out: Plant response rating (scale of 0 to 100), Ragweed): 75%
- pest or weed control at 62 g/ha [4, 10]: 80%
- pest or weed control at 125 g/ha [4, 10]: 85%
- pest or weed control at 250 g/ha ([4]; post-emergence, Postemergence, scale 0 to 100, read-out: Plant response rating, Ragweed): 90%
- pest or weed control at 31 g/ha [4, 11]: 85%
- pest or weed control at 62 g/ha [4, 11]: 85%
- pest or weed control at 125 g/ha [4, 12]: 95%
- pest or weed control at 250 g/ha [4, 12]: 100%
- Corn plant response rating (crop injury, 0 = no effect, 100 = complete kill) at 31 g/ha (corn (Zea mays); post-emergence, Postemergence, read-out: Plant response rating (scale of 0 to 100), Corn): 20%
- Corn plant response rating (crop injury, 0 = no effect, 100 = complete kill) at 62 g/ha (corn (Zea mays); [13]): 50%
- Corn plant response rating (crop injury, 0 = no effect, 100 = complete kill) at 125 g/ha (corn (Zea mays); [13]): 50%
- Corn plant response rating (crop injury, 0 = no effect, 100 = complete kill) at 31 g/ha (corn (Zea mays); [14]): 0%
- Corn plant response rating (crop injury, 0 = no effect, 100 = complete kill) at 62 g/ha (corn (Zea mays); [14]): 0%
- Corn plant response rating (crop injury, 0 = no effect, 100 = complete kill) at 125 g/ha (corn (Zea mays); pre-emergence, Preemergence, scale 0 to 100, read-out: Plant response rating, Corn): 20%
- Corn plant response rating (crop injury, 0 = no effect, 100 = complete kill) at 250 g/ha (corn (Zea mays); pre-emergence, Preemergence, 250 g ai/ha, scale 0 to 100): 30%
- pest or weed control at 31 g/ha ([5]; post-emergence, Postemergence, read-out: Plant response rating (scale of 0 to 100), Crabgrass): 70%
- pest or weed control at 62 g/ha [5, 15]: 80%
- pest or weed control at 125 g/ha [5, 15]: 85%
- pest or weed control at 250 g/ha ([5]; post-emergence, Postemergence, scale 0 to 100, read-out: Plant response rating, Crabgrass): 90%
- pest or weed control at 31 g/ha [5, 16]: 0%
- pest or weed control at 62 g/ha [5, 16]: 0%
- pest or weed control at 125 g/ha [5, 17]: 70%
- pest or weed control at 250 g/ha [5, 17]: 90%
- pest or weed control at 31 g/ha ([6]; 31 g ai/ha, read-out: Plant response rating (scale of 0 to 100), Goosegrass): 35%
- pest or weed control at 62 g/ha ([6]; 62 g ai/ha, scale 0 to 100 (0 no effect, 100 complete control), read-out: Goosegrass plant response rating): 35%
- pest or weed control at 125 g/ha ([6]; 125 g ai/ha, scale 0 to 100 (0 no effect, 100 complete control), read-out: Goosegrass plant response rating): 60%
- pest or weed control at 250 g/ha ([6]; 250 g ai/ha, scale 0 to 100, read-out: Plant response rating, Goosegrass): 70%
